# Data: BindingDB's records for doi:10.7270/Q2ZC817P (The Scripps Research Institute Molecular Screening Center, 2007)
# Molecular target: Sphingosine 1-phosphate receptor 1 (Homo sapiens, UniProt P21453)
# Test: potentiators of S1P1 agonist response, dose response, cell-based, potentiator mode, 60K MLSMR set (AID 466)
# Settings: not given
# Sequence of Sphingosine 1-phosphate receptor 1 (P21453 whole entry): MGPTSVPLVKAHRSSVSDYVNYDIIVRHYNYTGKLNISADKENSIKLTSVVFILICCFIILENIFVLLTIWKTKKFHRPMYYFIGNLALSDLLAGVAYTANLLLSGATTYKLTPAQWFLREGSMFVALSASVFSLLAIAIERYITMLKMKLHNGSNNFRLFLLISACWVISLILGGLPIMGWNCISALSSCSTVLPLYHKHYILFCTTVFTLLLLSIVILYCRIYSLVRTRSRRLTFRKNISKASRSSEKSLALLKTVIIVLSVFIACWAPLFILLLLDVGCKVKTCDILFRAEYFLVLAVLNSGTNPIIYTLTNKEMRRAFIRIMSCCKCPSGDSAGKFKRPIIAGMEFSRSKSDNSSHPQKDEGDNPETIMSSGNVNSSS
row,SMILES,EC50 [µM]
1,CC(=O)Oc1ccc(-n2c(O)c3c(c2O)C2(C)C=CC3(C)O2)cc1 [MLS000107813],13.4
2,"Cc1cc(C(=O)CSc2nnnn2C)c(C)n1-c1cccc(F)c1 [1-[1-(3-fluorophenyl)-2,5-dimethyl-3-pyrrolyl]-2-[(1-methyl-5-tetrazolyl)thio]ethanone]",1.88
3,CCOC(=O)/C=C/S(=O)(=O)c1ccc(NC(C)=O)cc1,> 10

# The next lines start with the values.
row,EC50 [µM],SMILES
1,2.6,"Cc1ccc(-c2csc3ncnc(Sc4nnc(CN5CCCCCC5=O)o4)c23)cc1 [1-[[5-[5-(4-methylphenyl)thieno[2,3-d]pyrimidin-4-yl]sulfanyl-1,3,4-oxadiazol-2-yl]methyl]azepan-2-one]"
2,1.96,"Cc1ccc(OCc2nc(-c3ccccc3)no2)c(C)c1 [5-[(2,4-dimethylphenoxy)methyl]-3-phenyl-1,2,4-oxadiazole]"

# Same assay, conditions: inactive by the depositor's call
row,SMILES,EC50 [µM]
1,"C=CCn1c(SCC(=O)c2cccs2)nc2sc(CC)cc2c1=O [3-allyl-6-ethyl-2-[[2-keto-2-(2-thienyl)ethyl]thio]thieno[2,3-d]pyrimidin-4-one]",38.8
2,"CCN(CC)c1ccc(-n2c(C)c(C(C)=O)c(C(C)=O)c2C)cc1 [1-[1-[4-(diethylamino)phenyl]-4-ethanoyl-2,5-dimethyl-pyrrol-3-yl]ethanone]",10.4

# Continued, values first:
row,EC50 [µM],SMILES
1,11.5,"CCc1ccc(-c2nc(CSCC(=O)N3CCN(c4ccccn4)CC3)c(C)o2)cc1 [1-[({[2-(4-ethylphenyl)-5-methyl-1,3-oxazol-4-yl]methyl}thio)acetyl]-4-pyridin-2-ylpiperazine]"
2,15.4,"Cc1nc2ncnn2c(N2CCN(c3cccc(C(F)(F)F)c3)CC2)c1C [5,6-Dimethyl-7-[4-(3-trifluoromethyl-phenyl)-piperazin-1-yl]-[1,2,4]triazolo[1,5-a]pyrimidine]"
